System: human MDMs
Assay: DiO oxLDL uptake by PBMC derived macrophages
Assay type: cell-based
Conditions: MDMs co-incubated with PEG-b-PLA NPs loaded with M12 and DiO oxLDL
Description: Peripheral blood mononuclear cells (PBMC) were isolated from human buffy coats (Blood Center of New Jersey; East Orange, N.J.) by Ficoll-Paque (1.077 g mL^−1; GE Healthcare) density gradient. Monocytes were selected by plate adherence after two hours by washing thrice with PBS and cultured for 7 days in RPMI 1640 (ATCC) with 10% FBS, 1% Penicillin/Streptomycin and 50 ng mL^−1 M-CSF for differentiation into macrophages (MDM). Media was exchanged every two to three days. Primary Human Coronary Artery Smooth Muscle Cells (CASMC) (Lonza) between passages 3-6 were cultured in SM-GM2 media (Lonza). CASMC were plated on Type I Collagen coated wells for cytotoxicity experiments. […]
Human MDMs were co-incubated with 5 μg mL^−1 of 3,3′-dioctadecyloxacarbocyanine (DiO) labeled oxLDL (Kalen Biomedical; Montgomery Village, Md.) and either NPs or micelles for 24 h in the presence of 0 (serum-free), 5, 10 or 20% FBS. […] Cells were fixed and counterstained with Hoechst 33342 before epifluorescent imaging on a Nikon Eclipse TE2000-S. Uptake of oxLDL in MDMs was quantified by ImageJ and normalized to cell count. Analyzed data were from three independent experiments performed in triplicate.
Inhibition of oxLDL uptake in human MDMs by AM NPs and analogous micellar systems were determined (FIG. 3B-C). […] Uptake of oxLDL in MDMs was determined by ImageJ analysis of epifluorescent images. […]

With “mucic acid modified with lauroyl groups [M12]” the “therapeutic efficacy towards inhibiting oxLDL uptake” value was “no therapeutic efficacy”.

Source: US10016517B2, “Bioactive amphiphilic polymer stabilized nanoparticles with enhanced stability and activity” (RUTGERS, THE STATE UNIVERSITY OF NEW JERSEY, priority 2011, dated 2018)
